By IC50 is commonly meant the point on the concentration scale where inhibition reaches its midpoint.

In one assay the target is T1, human factor XIa (Homo sapiens, UniProt P03951).
T1 construct: purchased Kordia
Kind of assay: Measurement of FXIa inhibition (fluorogenic peptide substrate, AMC cleavage). The class given is biochemical. As to conditions: factor XIa from Kordia 0.45 nM; substrate Boc-Glu(OBzl)-Ala-Arg-AMC 10 μM; 30 min at 22° C.; in some cases averages from multiple determinations. As for the experimental part: The factor XIa inhibition of the substances according to the invention is determined using a biochemical test system which utilizes the reaction of a peptidic factor XIa substrate to determine the enzymatic activity of human factor XIa. Here, factor XIa cleaves from the peptic factor XIa substrate the C-terminal aminomethylcoumarin (AMC), the fluorescence of which is measured. The determinations are conducted in microtitre plates.
Test substances are dissolved in dimethyl sulfoxide and serially diluted in dimethyl sulfoxide (3000 μM to 0.0078 μM; resulting final concentrations in the test: 50 μM to 0.00013 μM). 1 μl of the diluted substance solutions is placed into each of the wells of white microtitre plates from Greiner (384 wells). 20 μl of assay buffer (50 mM of Tris/HCl pH 7.4; 100 mM of sodium chloride; 5 mM of calcium chloride; 0.1% of bovine serum albumin) and 20 μl of factor XIa from Kordia (0.45 nM in assay buffer) are then added successively. After 15 min of incubation, the enzyme reaction is started by addition of 20 μl of the factor XIa substrate Boc-Glu(OBzl)-Ala-Arg-AMC dissolved in assay buffer (10 μM in assay buffer) from Bachem, the mixture is incubated at room temperature (22° C.) for 30 min and fluorescence is then measured (excitation: 360 nm, emission: 460 nm). The measured emissions of the test batches with test substance are compared to those of control batches without test substance (only dimethyl sulfoxide instead of test substance in dimethyl sulfoxide), and IC50 values are calculated from the concentration/activity relationships. Activity data from this test are given in Table A below (in some cases as averages from multiple individual determinations): […]

The next assay has as its target T2, human plasma kallikrein (Homo sapiens, UniProt P03952).
T2 construct: purchased Kordia
Nature of the assay: Determination of the plasma kallikrein activity (fluorogenic peptide substrate, AMC cleavage). The class given is biochemical. As to conditions: plasma kallikrein from Kordia 0.6 nM; substrate H-Pro-Phe-Arg-AMC 10 μM; 30 min at 22° C.; in some cases averages from multiple determinations. As for the experimental part: To determine the plasma kallikrein inhibition of the substances according to the invention, a biochemical test system is used which utilizes the reaction of a peptidic plasma kallikrein substrate to determine the enzymatic activity of human plasma kallikrein. Here, plasma kallikrein cleaves from the peptic plasma kallikrein substrate the C-terminal aminomethylcoumarin (AMC), the fluorescence of which is measured. The determinations are conducted in microtitre plates.
Test substances are dissolved in dimethyl sulfoxide and serially diluted in dimethyl sulfoxide (3000 μM to 0.0078 μM; resulting final concentrations in the test: 50 μM to 0.00013 μM). 1 μl of the diluted substance solutions is placed into each of the wells of white microtitre plates from Greiner (384 wells). 20 μl of assay buffer (50 mM Tris/HCl pH 7.4; 100 mM sodium chloride solution; 5 mM calcium chloride solution; 0.1% of bovine serum albumin) and 20 μl of plasma kallikrein from Kordia (0.6 nM in assay buffer) are then added successively. After 15 min of incubation, the enzyme reaction is started by addition of 20 μl of the substrate H-Pro-Phe-Arg-AMC dissolved in assay buffer (10 μM in assay buffer) from Bachem, the mixture is incubated at room temperature (22° C.) for 30 min and fluorescence is then measured (excitation: 360 nm, emission: 460 nm). The measured emissions of the test batches with test substance are compared to those of control batches without test substance (only dimethyl sulfoxide instead of test substance in dimethyl sulfoxide), and IC50 values are calculated from the concentration/activity relationships. Activity data from this test are given in Table B below (in some cases as averages from multiple individual determinations): […]

T1 sequence (P03951 388-625 limits assumed): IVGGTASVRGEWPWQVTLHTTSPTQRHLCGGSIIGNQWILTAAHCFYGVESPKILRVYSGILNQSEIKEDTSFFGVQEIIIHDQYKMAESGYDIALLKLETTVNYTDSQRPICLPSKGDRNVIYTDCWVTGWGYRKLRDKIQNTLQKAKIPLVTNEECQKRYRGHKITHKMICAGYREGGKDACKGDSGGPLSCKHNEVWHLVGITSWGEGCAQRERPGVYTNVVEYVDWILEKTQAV
T1 sequence (P03951 19-387 partner limits assumed): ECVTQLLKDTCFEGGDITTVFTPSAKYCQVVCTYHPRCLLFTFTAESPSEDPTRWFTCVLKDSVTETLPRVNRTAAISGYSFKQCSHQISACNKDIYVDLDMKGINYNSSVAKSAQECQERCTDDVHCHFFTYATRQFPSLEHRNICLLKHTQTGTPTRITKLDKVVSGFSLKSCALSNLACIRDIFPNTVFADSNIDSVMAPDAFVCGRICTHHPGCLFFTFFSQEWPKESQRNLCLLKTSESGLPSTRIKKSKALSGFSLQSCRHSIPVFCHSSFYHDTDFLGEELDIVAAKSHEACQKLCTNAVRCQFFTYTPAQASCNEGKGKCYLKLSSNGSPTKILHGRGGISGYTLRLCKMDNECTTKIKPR
T2 sequence (P03952 391-638 limits assumed): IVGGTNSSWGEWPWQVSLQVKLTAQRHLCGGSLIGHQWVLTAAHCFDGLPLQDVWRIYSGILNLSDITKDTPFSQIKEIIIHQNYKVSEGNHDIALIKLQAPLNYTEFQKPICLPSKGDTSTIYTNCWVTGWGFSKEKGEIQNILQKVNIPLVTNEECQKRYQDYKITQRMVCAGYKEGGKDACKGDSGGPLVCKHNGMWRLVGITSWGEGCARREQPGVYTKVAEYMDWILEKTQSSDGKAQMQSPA
T2 sequence (P03952 20-390 partner limits assumed): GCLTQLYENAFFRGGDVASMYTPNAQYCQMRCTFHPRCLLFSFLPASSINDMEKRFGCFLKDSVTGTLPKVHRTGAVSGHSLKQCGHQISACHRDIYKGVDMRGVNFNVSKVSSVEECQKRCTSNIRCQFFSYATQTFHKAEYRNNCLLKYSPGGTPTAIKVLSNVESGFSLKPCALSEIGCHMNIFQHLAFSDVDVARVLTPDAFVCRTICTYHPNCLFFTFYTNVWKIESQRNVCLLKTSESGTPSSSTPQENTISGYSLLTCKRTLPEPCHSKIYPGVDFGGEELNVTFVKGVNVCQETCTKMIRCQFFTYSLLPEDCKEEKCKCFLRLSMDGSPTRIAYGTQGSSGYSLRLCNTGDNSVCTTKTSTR

On to `COc1cn(C(CCOC2(C)CCC2)C(=O)Nc2ccc(C(N)=O)c(F)c2)c(=O)cc1-c1cc(Cl)ccc1OCC(F)(F)F` (racemic) [Example 59, 4-[[2-[4-[5-Chloro-2-(2,2,2-trifluoroethoxy)phenyl]-5-methoxy-2-oxo-1-pyridyl]-4-(1-methylcyclobutoxy)butanoyl]amino]-2-fluorobenzamide], for which the 50% inhibitory concentration (IC50) on human factor XIa is 14 nM; at human plasma kallikrein it was 110 nM.
Turning to `COc1cn(C(CCOC(C)(C)C)C(=O)Nc2ccc(C(N)=O)nc2)c(=O)cc1-c1cc(Cl)ccc1OCC(F)F` (racemic) [Example 27, 5-[(4-tert-Butoxy-2-{4-[5-chloro-2-(2,2-difluoroethoxy)phenyl]-5-methoxy-2-oxopyridin-1(2H)-yl}butanoyl)amino]pyridine-2-carboxamide], the IC50 on human factor XIa worked out at 18 nM; against human plasma kallikrein, 95 nM.
For `COCCC(C(=O)Nc1ccc(C(=O)O)cc1)n1cc(OC)c(-c2cc(Cl)ccc2OCC(F)(F)F)cc1=O` (racemic) [Example 1, 4-[(2-{4-[5-Chloro-2-(2,2,2-trifluoroethoxy)phenyl]-5-methoxy-2-oxopyridin-1(2H)-yl}-4-methoxybutanoyl)amino]benzoic acid], in that order: 1.2 nM and 55 nM.
As to `COc1cn(C(C[C@H](C)OC)C(=O)Nc2ccc(C(N)=O)c(F)c2)c(=O)cc1-c1cc(Cl)ccc1OCC(F)(F)F` (mixture of isomers) [Example 40, 4-{[(4S)-2-{4-[5-Chloro-2-(2,2,2-trifluoroethoxy)phenyl]-5-methoxy-2-oxopyridin-1(2H)-yl}-4-methoxypentanoyl]amino}-2-fluorobenzamide], the IC50 at human factor XIa amounted to 19 nM; at human plasma kallikrein, 230 nM.
For `CNC(=O)c1ccc(NC(=O)C(CCOC)n2cc(OC)c(-c3cc(Cl)ccc3OCC(F)(F)F)cc2=O)cn1` (racemic) [Example 4, 5-[(2-{4-[5-Chloro-2-(2,2,2-trifluoroethoxy)phenyl]-5-methoxy-2-oxopyridin-1(2H)-yl}-4-methoxybutanoyl)amino]-N-methylpyridine-2-carboxamide], in that order: 6.5 nM and 49 nM.
For `COCCC(C(=O)Nc1ccc(C(=O)O)cc1)n1cc(OC)c(-c2cc(Cl)ccc2OCC(F)(F)F)cc1=O` (single isomer, unassigned) [Example 2, 4-[(2-{4-[5-Chloro-2-(2,2,2-trifluoroethoxy)phenyl]-5-methoxy-2-oxopyridin-1(2H)-yl}-4-methoxybutanoyl)amino]benzoic acid], in that order: 0.28 nM and 15 nM.
For `COc1cn([C@@H](C[C@@H]2CCCCO2)C(=O)Nc2ccc(C(=O)O)cc2)c(=O)cc1-c1cc(Cl)ccc1OCC(F)(F)F` (single isomer, unassigned) [Example 78], in that order: 0.41 nM and 19 nM.
For `COc1cn(C(CCOC(C)(C)C)C(=O)Nc2ccc3nc(C(=O)O)cn3c2)c(=O)cc1-c1cc(Cl)ccc1OCC(F)(F)F` (racemic) [Example 73, 6-{[4-tert-Butoxy-2-{4-[5-chloro-2-(2,2,2-trifluoroethoxy)phenyl]-5-methoxy-2-oxopyridin-1(2H)-yl}butanoyl]amino}imidazo[1,2-a]pyridine-2-carboxylic acid], the IC50 on human factor XIa turned out to be 2 nM; against human plasma kallikrein, 18 nM.
For `COc1cc(NC(=O)C(CCOC(C)(C)C)n2cc(OC)c(-c3cc(Cl)ccc3OCC(F)(F)F)cc2=O)ccc1C(=O)O` (racemic) [Example 74, 4-{[4-tert-Butoxy-2-{4-[5-chloro-2-(2,2,2-trifluoroethoxy)phenyl]-5-methoxy-2-oxopyridin-1(2H)-yl}butanoyl]amino}-2-methoxybenzoic acid], in that order: 6.9 nM and 210 nM.
